Experiments:
ACHN [1] = experiment: Cytotoxicity against TRAIL-resistant human ACHN cells assessed as cell killing after 20 to 24 hrs; assay type: functional, cell-based
ACHN [2] = experiment: Ratio of EC50 for TRAIL-resistant human ACHN cells to EC50 for TRAIL-resistant human ACHN cells in presence of TRAIL; assay type: functional
ACHN [3] = experiment: Cytotoxicity against TRAIL-resistant human ACHN cells assessed as cell killing after 20 to 24 hrs in presence of TRAIL; assay type: functional, cell-based

| Compound | EC50 (ACHN [1]) [µM] | Ratio EC50 (ACHN [2]) | EC50 (ACHN [3]) [µM] |
| --- | --- | --- | --- |
| C=C/C(C)=C/C[C@]1(C)[C@H](C)[C@@H](O)[C@@H](O)[C@@]23C(=C[C@H](OC(=O)/C=C\C=C\CCCCC)C[C@@H]12)[C@@H](OC(C)=O)O[C@H]3OC(C)=O [ARGUTIN C] | 3.1 | 1.9 | 1.6 |
| C=C/C(C)=C/C[C@]1(C)[C@H](C)[C@@H](O)C[C@@]23C(=C[C@H](OC(=O)/C=C\C=C\CCCCC)C[C@@H]12)[C@@H](OC(C)=O)O[C@H]3OC(C)=O [ARGUTIN E] | 3.3 | 1.5 | 2.2 |
| C=C/C(C)=C/C[C@]1(C)[C@H](C)[C@@H](O)[C@@H](OC(=O)/C=C/C=C/CCCCC)[C@@]23C(=C[C@H](O)C[C@@H]12)[C@@H](OC(C)=O)O[C@H]3OC(C)=O [ARGUTIN D] | 14.3 | 1.6 | 8.7 |
| C=CC(=C)[C@@H](C[C@]1(C)[C@H](C)[C@@H](O)[C@@H](O)[C@@]23C(=C[C@H](OC(=O)/C=C\C=C\CCCCC)C[C@@H]12)[C@@H](OC(C)=O)O[C@H]3OC(C)=O)OO [ARGUTIN G] | 4.2 | 1.5 | 2.8 |
| C=C/C(C)=C/C[C@]1(C)[C@H](C)C[C@@H](O)[C@@]23C(=C[C@H](OC(=O)/C=C\C=C\CCCCC)C[C@@H]12)[C@@H](OC(C)=O)O[C@H]3OC(C)=O [ARGUTIN A] | 5.4 | 2.3 | 2.4 |
| C=C/C(C)=C/C[C@]1(C)[C@H](C)C[C@@H](OC(=O)/C=C/C=C/CCCCC)[C@@]23C(=C[C@H](O)C[C@@H]12)[C@@H](OC(C)=O)O[C@H]3OC(C)=O [ARGUTIN B] | 13.8 | 3 | 4.6 |
| C=CC(=C)[C@@H](C[C@]1(C)[C@H](C)C[C@@H](O)[C@@]23C(=C[C@H](OC(=O)/C=C\C=C\CCCCC)C[C@@H]12)[C@@H](OC(C)=O)O[C@H]3OC(C)=O)OO [ARGUTIN F] | 10.4 | 1.5 | 7.1 |
